# Assay results: US20260109707A1, “HETEROBIFUNCTIONAL COMPOUNDS AND METHODS OF TREATING DISEASE” (Halda Therapeutics OpCo. Inc., priority 2022, published 2026)
# Assays:
# [1] = biological target: T1, BRD4-BD2 (Homo sapiens, UniProt O60885); assay: bromoKdELECT assay for binding affinity to BRD4-BD2; conditions: binding to BRD4-BD2, Table 5
# T1 construct: made in house; host or cells: T7 phage grown in an E. coli host derived from the BL21 strain
# Method: (§1) Compounds were tested using a bromoKdELECT assay. T7 phage strains displaying bromodomains were grown in parallel in 24-well blocks in an E. coli host derived from the BL21 strain. E. coli were grown to log-phase and infected with T7 phage from a frozen stock (multiplicity of infection=0.4) and incubated with shaking at 32° C. until lysis (90-150 minutes). The lysates were centrifuged (5,000×g) and filtered (0.2 m) to remove cell debris. Streptavidin-coated magnetic beads were treated with biotinylated small molecule or acetylated peptide ligands for 30 minutes at room temperature to generate affinity resins for bromodomain assays. The liganded beads were blocked with excess biotin and washed with blocking buffer (SeaBlock (Pierce), 1% BSA, 0.05% Tween 20, 1 mM DTT) to remove unbound ligand and to reduce nonspecific phage binding. Binding reactions were assembled by combining bromodomains, liganded affinity beads, and test compounds in 1× binding buffer (17% SeaBlock, 0.33×PBS, 0.04% Tween 20, 0.02% BSA, 0.004% Sodium azide, 7.4 mM DTT). Test compounds were prepared as 1000× stocks in 100% DMSO. Kds were determined using an 11-point 3-fold compound dilution series with one DMSO control point. All compounds for Kd measurements are distributed by acoustic transfer (non-contact dispensing) in 100% DMSO. The compounds were then diluted directly into the assays such that the final concentration of DMSO was 0.09%. All reactions performed in polypropylene 384-well plates. Each was a final volume of 0.02 ml. The assay plates were incubated at room temperature with shaking for 1 hour and the affinity beads were washed with wash buffer (1×PBS, 0.05% Tween 20). The beads were then resuspended in elution buffer (1×PBS, 0.05% Tween […] non-biotinylated affinity ligand) and incubated at room temperature with shaking for 30 minutes. The bromodomain concentration in the eluates was measured by qPCR.
# [2] = biological target: T2, BRD4-BD1 (Homo sapiens, UniProt O60885); assay: bromoKdELECT assay for binding affinity to BRD4-BD1; conditions: binding to BRD4-BD1, Table 4
# T2 construct: made in house; host or cells: T7 phage grown in an E. coli host derived from the BL21 strain
# Method: as §1, with “μm)” for “m)”
# [3] = system: T-Rex 293 cell line SC3 cells having increased expression of androgen receptor protein due to exposure to doxycycline; assay: Cellular growth inhibition assay, T-Rex 293 SC3 cells with doxycycline (CellTiter-Glo, 72 hours); assay type: cell-based; conditions: 72 h, T-Rex 293 SC3 cells with increased androgen receptor expression due to doxycycline (10 ng/mL)
# Outline: (§2)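 Growth inhibition is measured in an inducible AR-expressing T-Rex 293 clone, SC3, cultured with or without 10 ng/mL doxycycline in hormone-depleted medium. Test compounds are applied for 72 hours. GI50 values derive from CellTiter-Glo 2.0 signal fitted by four-parameter regression.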
# [4] = system: T-Rex 293 cell line SC3 cells lacking increased expression of androgen receptor protein; assay: Cellular growth inhibition assay, T-Rex 293 SC3 cells without doxycycline (CellTiter-Glo, 72 hours); assay type: cell-based; conditions: T-Rex 293 cell line SC3 cells not exposed to doxycycline (lacking increased androgen receptor expression)
# Outline: as §2
# [5] = system: VCaP cells; assay: Cellular growth inhibition assay for VCaP cells (CellTiter-Glo, 72 hours); assay type: cell-based, human; conditions: Homo sapiens, VCaP, 72 h
# Outline: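 Luminescent viability signal after 72 h of compound exposure gave GI50 values by four-parameter nonlinear regression. Compounds were added in 0.5% DMSO to cells plated 24 h earlier at 5000/well in DMEM containing 10% FBS.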
Kd [1],Kd [2],GI50 [5],SMILES,GI50 [3],GI50 [4],GI50 ([4]; 72 h)
< 50 nM,50 to 500 nM,,CCNC(=O)C[C@@H]1N=C(c2ccc(CCCC3CCN(c4ccc(C(=O)N[C@H]5CC[C@H](Oc6ccc(C#N)c(Cl)c6)CC5)nn4)CC3)cc2)c2c(sc(C)c2C)-n2c(C)nnc21 [I-51],< 500 nM,500 to 1500 nM,
,< 50 nM,< 500 nM,"Cc1sc2c(c1C)C(c1ccc(Cl)cc1)=N[C@@H](CC(=O)NCCOCCOCCOCCOCCOC1CCN(c3ccc(C(=O)N[C@H]4CC[C@H](Oc5ccc(C#N)c(Cl)c5)CC4)nn3)CC1)c1nnc(C)n1-2 [I-3, N-[4-(3-chloro-4-cyano-phenoxy)cyclohexyl]-6-[4-[2-[2-[2-[2-[2-[[2-[7-(4-chlorophenyl)-4,5,13-trimethyl-3-thia-1,8,11,12-tetrazatricyclo[8.3.0.0^2,6]trideca-2(6),4,7,10,12-pentaen-9-yl]acetyl]amino]ethoxy]ethoxy]ethoxy]ethoxy]ethoxy]-1-piperidyl]pyridazine-3-carboxamide]",< 500 nM,,1500 to 3000 nM
